Experimental data: ChEMBL document CHEMBL3352592, “The antileishmanial activity of isoforms 6- and 8-selective histone deacetylase inhibitors” (Bioorg Med Chem Lett, 2014); call rule not given here
pIC50: −log10 of the molar value. ≈ marks a conversion by molar mass, not a printed value.

Assays:
Leishmania donovani [1] = experiment: Antileishmanial activity against axenic amastigote stage of Leishmania donovani after 72 hrs by Alamar blue assay; assay type: functional, organism-based
Leishmania donovani [2] = experiment: Antileishmanial activity against amastigote stage of Leishmania donovani infected in human THP1 cells after 48 hrs by Alamar blue assay; assay type: functional, organism-based; conditions: THP-1, 48 h
THP-1 = experiment: Cytotoxicity against human THP1 cells after 48 hrs by Alamar blue assay; assay type: ADME, cell-based; conditions: THP-1, 48 h
Leishmania donovani [3] = experiment: Antileishmanial activity against promastigote stage of Leishmania donovani after 72 hrs by Alamar blue assay; assay type: functional, organism-based
Leishmania donovani [4] = experiment: Selectivity ratio of IC50 for axenic amastigote stage of Leishmania donovani to IC50 for amastigote stage of Leishmania donovani infected in human THP1 cells; assay type: functional, THP-1
[5] = target: T1, Protein deacetylase HDAC6 (Homo sapiens, UniProt Q9UBN7); experiment: Inhibition of HDAC6 in human LNCAP cells assessed as tubulin acetylation by Western blot analysis; assay type: cell-based
T1 sequence (Q9UBN7 whole entry): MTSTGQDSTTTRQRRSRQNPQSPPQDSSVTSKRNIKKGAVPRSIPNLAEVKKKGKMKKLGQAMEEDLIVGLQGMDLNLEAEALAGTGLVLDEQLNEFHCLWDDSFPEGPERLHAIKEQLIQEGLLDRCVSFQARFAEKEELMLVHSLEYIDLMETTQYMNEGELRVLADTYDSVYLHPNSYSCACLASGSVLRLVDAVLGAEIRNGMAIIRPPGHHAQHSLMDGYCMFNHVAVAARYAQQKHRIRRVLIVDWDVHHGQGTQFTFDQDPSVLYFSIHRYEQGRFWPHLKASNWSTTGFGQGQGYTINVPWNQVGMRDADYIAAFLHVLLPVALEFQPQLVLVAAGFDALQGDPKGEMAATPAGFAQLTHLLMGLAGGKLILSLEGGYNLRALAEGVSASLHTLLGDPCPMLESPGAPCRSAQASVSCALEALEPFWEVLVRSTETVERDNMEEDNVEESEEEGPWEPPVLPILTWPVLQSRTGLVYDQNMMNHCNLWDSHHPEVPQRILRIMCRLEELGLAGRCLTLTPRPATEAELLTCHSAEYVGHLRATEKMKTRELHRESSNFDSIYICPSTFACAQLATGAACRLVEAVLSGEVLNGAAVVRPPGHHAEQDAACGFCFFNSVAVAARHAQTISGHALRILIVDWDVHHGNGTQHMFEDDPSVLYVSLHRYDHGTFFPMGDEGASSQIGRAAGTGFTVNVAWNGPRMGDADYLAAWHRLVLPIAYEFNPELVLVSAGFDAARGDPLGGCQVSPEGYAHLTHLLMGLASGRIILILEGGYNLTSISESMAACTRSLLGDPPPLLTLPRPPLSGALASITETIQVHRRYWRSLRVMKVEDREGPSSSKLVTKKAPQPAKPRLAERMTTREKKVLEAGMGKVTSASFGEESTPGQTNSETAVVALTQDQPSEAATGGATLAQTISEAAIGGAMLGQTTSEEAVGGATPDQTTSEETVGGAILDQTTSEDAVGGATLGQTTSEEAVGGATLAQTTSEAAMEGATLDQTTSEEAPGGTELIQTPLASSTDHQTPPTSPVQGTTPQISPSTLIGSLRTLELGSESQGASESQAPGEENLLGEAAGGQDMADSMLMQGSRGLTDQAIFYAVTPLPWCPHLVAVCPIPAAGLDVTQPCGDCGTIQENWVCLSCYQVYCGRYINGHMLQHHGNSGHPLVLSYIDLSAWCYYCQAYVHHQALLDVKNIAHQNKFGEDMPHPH

DU-145 = experiment: Cytotoxicity against human DU145 cells; assay type: functional, cell-based
[6] = Cytotoxicity against human Jurkat gamma1 cells; assay type: functional, cell-based
LNCaP = experiment: Cytotoxicity against human LNCAP cells; assay type: functional, cell-based
Jurkat = experiment: Cytotoxicity against human Jurkat cells; assay type: functional, cell-based

SMILES	IC50 (Leishmania donovani [1])	IC50 (Leishmania donovani [2])	IC50 (THP-1)	IC50 (Leishmania donovani [3])	Ratio IC50 (Leishmania donovani [4])	pIC50 [5]	pIC50 (DU-145)	IC50 [6]	pIC50 (LNCaP)	pIC50 (Jurkat)
COc1ccc(Cn2ccc3ccc(C(=O)NO)cc32)cc1	> 40 µg/mL	> 10 µg/mL	> 10 µg/mL	–	–	–	–	–	–	–
O=c1c(O)cccn1Cc1ccc(-c2ccccc2)cc1	30.9 µg/mL (≈ 111 µM)	1.7 µg/mL (≈ 6.13 µM)	> 10 µg/mL	6.8 µg/mL (≈ 24.5 µM)	–	–	–	–	–	–
O=c1c(O)cccn1Cc1ccccc1	> 40 µg/mL	> 10 µg/mL	> 10 µg/mL	9.3 µg/mL (≈ 46.2 µM)	–	–	–	–	–	–
N#Cc1cccc(-c2ccc(Cn3cccc(O)c3=O)cc2)c1	> 40 µg/mL	2.3 µg/mL (≈ 7.61 µM)	> 10 µg/mL	9 µg/mL (≈ 29.8 µM)	–	–	–	–	–	–
Cc1ccc(-c2ccc(Cn3cccc(O)c3=O)cc2)cc1	29 µg/mL (≈ 99.5 µM)	> 10 µg/mL	> 10 µg/mL	6 µg/mL (≈ 20.6 µM)	–	–	–	–	–	–
Cc1cccc(-c2ccc(Cn3cccc(O)c3=O)cc2)c1	32.5 µg/mL (≈ 112 µM)	> 10 µg/mL	> 10 µg/mL	12.6 µg/mL (≈ 43.2 µM)	–	–	–	–	–	–
Cc1ccccc1-c1ccc(Cn2cccc(O)c2=O)cc1	31.6 µg/mL (≈ 108 µM)	> 10 µg/mL	> 10 µg/mL	27.6 µg/mL (≈ 94.7 µM)	–	–	–	–	–	–
CN(C)c1ccc(-c2ccc(Cn3cccc(O)c3=O)cc2)cc1	4 µg/mL (≈ 12.5 µM)	> 10 µg/mL	> 10 µg/mL	7.5 µg/mL (≈ 23.4 µM)	–	–	–	–	–	–
CN(C)c1ccc(-c2ccc(Cn3cccc(O)c3=O)cc2)cn1	> 40 µg/mL	> 10 µg/mL	> 10 µg/mL	38.9 µg/mL (≈ 121 µM)	–	–	–	–	–	–
N#Cc1ccc(-c2ccc(Cn3cccc(O)c3=O)cc2)cc1	5 µg/mL (≈ 16.5 µM)	3.5 µg/mL (≈ 11.6 µM)	> 10 µg/mL	4.6 µg/mL (≈ 15.2 µM)	–	–	–	–	–	–
CN(C)c1ccc(-n2cc(Cn3cccc(O)c3=S)nn2)cc1	5.3 µg/mL (≈ 16.2 µM)	1.5 µg/mL (≈ 4.58 µM)	> 10 µg/mL	1.3 µg/mL (≈ 3.97 µM)	–	–	–	–	–	–
Oc1cccn(Cc2cn(-c3ccccc3)nn2)c1=S	6.2 µg/mL (≈ 21.8 µM)	2.7 µg/mL (≈ 9.5 µM)	> 10 µg/mL	3.2 µg/mL (≈ 11.3 µM)	–	–	–	–	–	–
CN(C)c1ccc(-c2ccc(Cn3cccc(O)c3=S)cc2)cn1	6.1 µg/mL (≈ 18.1 µM)	2.6 µg/mL (≈ 7.7 µM)	> 10 µg/mL	2.3 µg/mL (≈ 6.82 µM)	–	–	–	–	–	–
CN(C)c1ccc(-c2ccc(Cn3cccc(O)c3=S)cc2)cc1	7.4 µg/mL (≈ 22 µM)	0.3 µg/mL (≈ 0.892 µM)	> 10 µg/mL	0.2 µg/mL (≈ 0.594 µM)	5	–	–	–	–	–
Cc1ccccc1-c1ccc(Cn2cccc(O)c2=S)cc1	34.4 µg/mL (≈ 112 µM)	2.1 µg/mL (≈ 6.83 µM)	> 10 µg/mL	0.3 µg/mL (≈ 0.976 µM)	–	5.11	4.87	–	–	–
Cc1cccc(-c2ccc(Cn3cccc(O)c3=S)cc2)c1	32.6 µg/mL (≈ 106 µM)	> 10 µg/mL	> 10 µg/mL	0.3 µg/mL (≈ 0.976 µM)	–	–	–	–	–	–
Cc1ccc(-c2ccc(Cn3cccc(O)c3=S)cc2)cc1	31.3 µg/mL (≈ 102 µM)	3.7 µg/mL (≈ 12 µM)	> 10 µg/mL	0.3 µg/mL (≈ 0.976 µM)	–	–	–	–	–	–
N#Cc1cccc(-c2ccc(Cn3cccc(O)c3=S)cc2)c1	11.2 µg/mL (≈ 35.2 µM)	3.9 µg/mL (≈ 12.2 µM)	> 10 µg/mL	0.4 µg/mL (≈ 1.26 µM)	–	–	–	–	–	–
N#Cc1ccc(-c2ccc(Cn3cccc(O)c3=S)cc2)cc1	6.1 µg/mL (≈ 19.2 µM)	0.9 µg/mL (≈ 2.83 µM)	> 10 µg/mL	0.7 µg/mL (≈ 2.2 µM)	5	–	–	–	–	–
Oc1cccn(Cc2ccc(-c3ccccc3)cc2)c1=S	6.3 µg/mL (≈ 21.5 µM)	0.6 µg/mL (≈ 2.05 µM)	> 10 µg/mL	0.1 µg/mL (≈ 0.341 µM)	5	–	–	–	–	–
Oc1ccc[nH]c1=S	30.7 µg/mL (≈ 241 µM)	6.1 µg/mL (≈ 48 µM)	> 10 µg/mL	12.7 µg/mL (≈ 99.9 µM)	–	–	–	–	–	–
Oc1cccn(Cc2ccccc2)c1=S	6.5 µg/mL (≈ 29.9 µM)	5.8 µg/mL (≈ 26.7 µM)	> 10 µg/mL	0.1 µg/mL (≈ 0.46 µM)	–	–	–	–	–	–
Oc1cccnc1O	> 40 µg/mL	> 10 µg/mL	> 10 µg/mL	> 40 µg/mL	–	–	–	–	–	–
N#Cc1ccccc1-c1ccc(Cn2cccc(O)c2=O)cc1	> 40 µg/mL	1.8 µg/mL (≈ 5.95 µM)	> 10 µg/mL	26.7 µg/mL (≈ 88.3 µM)	–	–	–	–	–	–
N#Cc1ccccc1-c1ccc(Cn2cccc(O)c2=S)cc1	31.7 µg/mL (≈ 99.6 µM)	> 10 µg/mL	> 10 µg/mL	0.9 µg/mL (≈ 2.83 µM)	–	–	< 4.70	Not Active	4.83	5.05
O=c1c(O)cccn1Cc1cn(-c2ccccc2)nn1	18 µg/mL (≈ 67.1 µM)	> 10 µg/mL	> 10 µg/mL	> 40 µg/mL	–	–	–	–	–	–
CN(C)c1ccc(-n2cc(Cn3cccc(O)c3=O)nn2)cc1	> 40 µg/mL	2 µg/mL (≈ 6.42 µM)	> 10 µg/mL	14.5 µg/mL (≈ 46.6 µM)	–	–	–	–	–	–
C[C@@H]1[C@H](O)[C@@H](C)/C=C/C=C/C=C/C=C/C=C/C=C/C=C/[C@H](O[C@@H]2O[C@H](C)[C@@H](O)[C@H](N)[C@@H]2O)C[C@@H]2O[C@](O)(C[C@@H](O)C[C@@H](O)[C@H](O)CC[C@@H](O)C[C@@H](O)CC(=O)O[C@H]1C)C[C@H](O)[C@H]2C(=O)O [AMPHOTERICIN B]	1.6 µg/mL (≈ 1.73 µM)	0.2 µg/mL (≈ 0.216 µM)	> 10 µg/mL	–	–	–	–	–	–	–
N=C(N)c1ccc(OCCCCCOc2ccc(C(=N)N)cc2)cc1 [PENTAMIDINE]	8.9 µg/mL (≈ 26.1 µM)	0.4 µg/mL (≈ 1.17 µM)	> 10 µg/mL	0.6 µg/mL (≈ 1.76 µM)	–	–	–	–	–	–
CN1CCc2c(c3ccccc3n2Cc2ccc(C(=O)NO)cc2)C1 [TUBASTATIN A]	8.8 µg/mL (≈ 26.2 µM)	–	> 10 µg/mL	4.4 µg/mL (≈ 13.1 µM)	–	–	–	–	–	–
